# Read-outs that look alike come from different tables or passages of the source.
# How the values were obtained:
# [1] = Tissue, plasma, rectal sample and GI content pharmacokinetics of tacrolimus, oral vs intra-cecal ingestible device (Example 10); parameters: species or system Yorkshire-Cross farm swine; conditions: in vivo
# Procedure: The primary objective of this study was to compare the tissue, plasma, rectal sample, and GI content pharmacokinetics of tacrolimus through oral versus intra-cecal ingestible device delivery in normal Yorkshire-Cross farm swine.
# (§1) No further randomization procedure was employed.
# Animals in Group 1 received an ingestible device containing 0.8 mL of vehicle solution (80% alcohol, 20% HCO-60). Animals in Group 2 received orally […] liquid formulation of tacrolimus at 4 mg/0.8 mL per animal (Prograf: 5 mg/mL). Animals in Group 3 received intra-cecally an ingestible device containing tacrolimus at 1 mg in 0.8 mL per ingestible device. Animals in Group 4 received intra-cecally an ingestible device containing tacrolimus at 2 mg in 0.8 mL per ingestible device. Animals in Group 5 received intra-cecally an ingestible device containing tacrolimus at 4 mg in 0.8 mL per ingestible device. To control for potential confounding effects of the surgery, all groups fast on Day −11 at least 24 hr before being subjected to anesthesia followed by surgical placements of a cecal port by a veterinary surgeon at Day −10. All animals were fasted for at least 12 hr prior to dosing on Day 1. Animals were dosed via either intra-cecal dosing (IC) or oral dosing (PO) at Day 1 (between 6-8 p.m.). All animals resumed feeding at approximately 4 hours after dose (11-12 p.m. after dosing).
# Animals in Group 1 (Vehicle Control) were administered a single intra-cecal ingestible device containing 0.8 mL Vehicle solution (80% alcohol, 20% castor oil (HCO-60) on Day 1. On Day −10 the animals were anesthetized, and a veterinary surgeon surgically placed an intra-cecal port in each animal. On Day 1, each animal was placed into a sling then a single intra-cecal ingestible device containing 0.8 mL vehicle solution (80% alcohol, 20% castor oil (HCO-60)) is introduced by the veterinary surgeon into the cecum via the cecal port in each animal. Following ingestible device placement, the animals were removed from the slings and placed back into their pens with water. All animals resumed feeding at approximately 4 hours after dose. […] A total of 60 samples were collected.
# Approximately 200˜400 mg of rectal content were collected, if available, with a fecal swab (Copan Diagnostics Nylon Flocked Dry Swabs, 502CS01). The fecal swab was pre-weighed and weighed after collection in the collection tube (Sterile Tube and Cap No Media, PFPM913S), and the sample weight was recorded. The fecal swab was broken via the breakpoint, and was stored in the collection tube, and immediately frozen at −70° C. […] Immediately following euthanasia, tissue was collected.
# For tissue necropsy, small intestine fluid and cecal fluid were collected separately from all the animals into two separate square plastic bottles, and stored at −20° C. The length and diameter of the cecum and the colon was measured from one animal in each group and recorded for reference. Tissues were collected for pharmacokinetic analyses and include mesenteric lymph nodes, a Peyer's Patch, and five gastrointestinal sections, including cecum, proximal colon, transverse colon, distal colon, and rectum. All samples were weighed, and the tissue sample weights were recorded. In each of the five gastrointestinal sections, tissue samples were collected in three different areas where the mucosal surface was visible and not covered by luminal content by using an 8.0-mm punch biopsy tool. Around 3 grams of the total punched sample were collected into a pre-weighed 15-mL conical tube, and the tissue weight was recorded. Three mesenteric lymph nodes were collected from different areas and weighed. At least one Peyer's Patch was collected and weighed.
# Luminal contents were collected for pharmacokinetic analyses from the surface of the tissue from each of five gastrointestinal sections: cecum, proximal colon, transverse colon, distal colon, and rectum (total of 75). […]
# [2] = Blood pharmacokinetics of oral vs intra-cecal tacrolimus (Example 13); parameters: species or system Yorkshire-Cross farm swine; conditions: in vivo; for concentration at 12 hr: Trough (12 hr)
# Source text: as §1
# [3] = Tacrolimus concentration in gastrointestinal tissue, luminal content and rectal contents, and tissue/plasma ratios (Example 13); format: in vivo, Yorkshire-Cross farm swine; conditions: female, Yorkshire-Cross, pig; for concentration at 12 hr: other: intra-cecal device; for concentration at 12 hr / concentration at 12 h: 12 hr post dose
# Procedure: The primary objective of this study was to study the pharmacokinetics of oral versus intra-cecal administration of tacrolimus in normal Yorkshire-Cross farm swine.
# This study compares the effects of administration of: a single intra-cecal administration of a device containing 0.8 mL sterile vehicle solution (80% alcohol, 20% castor oil (HCO-60)); a single oral dose of tacrolimus at 0.09 mg/kg (in sterile vehicle solution); and a single intra-cecal administration of a device containing either 0.02 mg/kg (in sterile vehicle solution), 0.04 mg/kg (in sterile vehicle solution), or 0.09 mg/kg (in sterile vehicle solution).
# This study employed five groups of three female swine weighing approximately 45 to 50 kg at study start. Swine were randomly placed into animal rooms/pens as they are transferred from the delivery vehicle without regard to group. Group numbers were assigned to the rooms in order of room number. No further randomization procedure was employed.
# Animals in Group 1 received intra-cecally a device containing a vehicle solution (80% alcohol, 20% HCO-60). Animals in Group 2 received orally a liquid formulation of tacrolimus at 0.09 mg/kg per animal. Animals in Group 3 received intra-cecally a device containing tacrolimus at 0.02 mg/kg per device. Animals in Group 4 received intra-cecally a device containing tacrolimus 0.04 mg/kg per device. Animals in Group 5 received intra-cecally a device containing tacrolimus 0.09 mg/kg per device.
# [4] = female, Yorkshire-Cross, pig, 0.02 mg/kg
# [5] = female, Yorkshire-Cross, pig, 0.04 mg/kg
# [6] = female, Yorkshire-Cross, pig, 0.09 mg/kg
smiles,measurement,setting,value
C=CC[C@@H]1/C=C(\C)C[C@H](C)C[C@H](OC)[C@H]2O[C@@](O)(C(=O)C(=O)N3CCCC[C@H]3C(=O)O[C@H](/C(C)=C/[C@@H]3CC[C@@H](O)[C@H](OC)C3)[C@H](C)[C@@H](O)CC1=O)[C@H](C)C[C@@H]2OC [tacrolimus],exposure AUC,[1],< 2000-12 ng·h/mL
same,"luminal content (spiral, transverse, and distal colon) concentrations",[1],Significantly higher
same,mean concentration of tacrolimus in the cecum tissue and the proximate colon tissue,[1],higher
same,tissue (spiral and transverse colon) concentrations,[1],Significantly higher
same,level of tacrolimus in tissue,[1]; po,No measurable level
same,rectal content concentration,[1]; po,no detectable level
same,AUC(0-t),[2]; [4],15.3 ± 2.36 ng·h/mL
same,Cmax,[2]; [4],2.39 ± 0.57 ng/mL
same,concentration at 12 hr,[2]; [4],0.746 ± 0.038 ng/mL
same,AUC(0-t),[2]; [5],51.4 ± 4.04 ng·h/mL
same,Cmax,[2]; [5],9.2 ± 3.3 ng/mL
same,concentration at 12 hr,[2]; [5],1.96 ± 0.491 ng/mL
same,AUC(0-t),[2]; [6],130 ± 7.83 ng·h/mL
same,Cmax,[2]; [6],21.8 ± 4.73 ng/mL
same,concentration at 12 hr,[2]; [6],4.35 ± 0.561 ng/mL
same,concentration at 12 hr,"[2]; female, Yorkshire-Cross, pig, po, 0.09 mg/kg",0.568 ± 0.291 ng/mL
same,concentration at 12 h,"[2]; female, Yorkshire-Cross, pig, po, 0.09 mg/kg, Trough level (12 hr)",0.568 ng/mL
same,mean concentration and AUC0-12 hours of tacrolimus in the blood,"[2]; po, 0.09 mg/kg",higher
same,Kp at 12 h,"[3]; cecum tissue, other: intra-cecal, 0.04 mg/kg, cecum, Group 4 IC (0.04 mg/kg), swine, read-out: Ratio Tissue (mean) (ng/g)/Trough(12 hr) (ng/ml)",26.7
same,Kp at 12 h,"[3]; cecum tissue, other: intra-cecal, 0.09 mg/kg, cecum, Group 5 IC (0.09 mg/kg), swine, read-out: Ratio Tissue (mean) (ng/g)/Trough(12 hr) (ng/ml)",17.8
same,Kp at 12 h,"[3]; distal colon tissue, other: intra-cecal, 0.02 mg/kg, distal colon, Group 3 IC (0.02 mg/kg), swine, read-out: Ratio Tissue (mean) (ng/g)/Trough(12 hr) (ng/ml)",59.9
same,Kp at 12 h,"[3]; distal colon tissue, other: intra-cecal, 0.04 mg/kg, distal colon, Group 4 IC (0.04 mg/kg), swine, read-out: Ratio Tissue (mean) (ng/g)/Trough(12 hr) (ng/ml)",14.6
same,Kp at 12 h,"[3]; distal colon tissue, other: intra-cecal, 0.09 mg/kg, distal colon, Group 5 IC (0.09 mg/kg), swine, read-out: Ratio Tissue (mean) (ng/g)/Trough(12 hr) (ng/ml)",15.6
same,Ratio Tissue (mean) (ng/g)/AUG(0-12 hr) (ng · hr/ml),"[3]; in vivo, po, 0.09 mg/kg, 12 h",0
same,Ratio Tissue (mean) (ng/g)/Trough(12 hr) (ng/ml),"[3]; in vivo, po, 0.09 mg/kg, 12 h",0
same,Kp at 12 h,"[3]; in vivo, po, 0.09 mg/kg, Ratio Tissue (mean) (ng/g)/AUG(0-12 hr) (ng · hr/ml)",0
same,Kp at 12 h,"[3]; in vivo, po, 0.09 mg/kg, Ratio Tissue (mean) (ng/g)/Trough(12 hr) (ng/ml)",0
same,concentration at 12 hr,"[3]; distal colon tissue, Group 3 IC (0.02 mg/kg), swine",44.7 ng/g
same,concentration at 12 hr,"[3]; proximal colon tissue, Group 3 IC (0.02 mg/kg), swine",50.2 ng/g
same,concentration at 12 hr,"[3]; spiral colon tissue, Group 3 IC (0.02 mg/kg), swine",204 ng/g
same,concentration at 12 hr,"[3]; spiral colon tissue, Group 4 IC (0.04 mg/kg), swine",342 ng/g
same,concentration at 12 hr,"[3]; spiral colon tissue, Group 5 IC (0.09 mg/kg), swine",783 ng/g
same,concentration at 12 hr,"[3]; transverse colon tissue, Group 3 IC (0.02 mg/kg), swine",128 ng/g
same,concentration at 12 hr,"[3]; transverse colon tissue, Group 4 IC (0.04 mg/kg), swine",85.8 ng/g
same,concentration at 12 hr,"[3]; transverse colon tissue, Group 5 IC (0.09 mg/kg), swine",272 ng/g
same,concentration at 12 h,"[3]; other: intra-cecal, cecum tissue, Group 4 IC (0.04 mg/kg), swine",52.3 ng/g
same,concentration at 12 h,"[3]; other: intra-cecal, cecum tissue, Group 5 IC (0.09 mg/kg), swine",77.3 ng/g
same,concentration at 12 h,"[3]; other: intra-cecal, distal colon tissue, Group 4 IC (0.04 mg/kg), swine",28.7 ng/g
same,concentration at 12 h,"[3]; other: intra-cecal, distal colon tissue, Group 5 IC (0.09 mg/kg), swine",67.7 ng/g
same,concentration at 12 h,"[3]; other: intra-cecal, proximal colon tissue, Group 4 IC (0.04 mg/kg), swine",98.3 ng/g
same,concentration at 12 h,"[3]; other: intra-cecal, proximal colon tissue, Group 5 IC (0.09 mg/kg), swine",157 ng/g
same,Kp at 12 h,"[3]; proximal colon tissue, other: intra-cecal, 0.02 mg/kg, proximal colon, Group 3 IC (0.02 mg/kg), swine, read-out: Ratio Tissue (mean) (ng/g)/Trough(12 hr) (ng/ml)",67.3
same,Kp at 12 h,"[3]; proximal colon tissue, other: intra-cecal, 0.04 mg/kg, proximal colon, Group 4 IC (0.04 mg/kg), swine, read-out: Ratio Tissue (mean) (ng/g)/Trough(12 hr) (ng/ml)",50.1
same,Kp at 12 h,"[3]; proximal colon tissue, other: intra-cecal, 0.09 mg/kg, proximal colon, Group 5 IC (0.09 mg/kg), swine, read-out: Ratio Tissue (mean) (ng/g)/Trough(12 hr) (ng/ml)",36.1
same,Kp at 12 h,"[3]; spiral colon tissue, other: intra-cecal, 0.02 mg/kg, spiral colon, Group 3 IC (0.02 mg/kg), swine, read-out: Ratio Tissue (mean) (ng/g)/Trough(12 hr) (ng/ml)",273
same,Kp at 12 h,"[3]; spiral colon tissue, other: intra-cecal, 0.04 mg/kg, spiral colon, Group 4 IC (0.04 mg/kg), swine, read-out: Ratio Tissue (mean) (ng/g)/Trough(12 hr) (ng/ml)",175
same,Kp at 12 h,"[3]; spiral colon tissue, other: intra-cecal, 0.09 mg/kg, spiral colon, Group 5 IC (0.09 mg/kg), swine, read-out: Ratio Tissue (mean) (ng/g)/Trough(12 hr) (ng/ml)",180
same,Kp at 12 h,"[3]; transverse colon tissue, other: intra-cecal, 0.02 mg/kg, transverse colon, Group 3 IC (0.02 mg/kg), swine, read-out: Ratio Tissue (mean) (ng/g)/Trough(12 hr) (ng/ml)",172
same,Kp at 12 h,"[3]; transverse colon tissue, other: intra-cecal, 0.04 mg/kg, transverse colon, Group 4 IC (0.04 mg/kg), swine, read-out: Ratio Tissue (mean) (ng/g)/Trough(12 hr) (ng/ml)",43.8
same,Kp at 12 h,"[3]; transverse colon tissue, other: intra-cecal, 0.09 mg/kg, transverse colon, Group 5 IC (0.09 mg/kg), swine, read-out: Ratio Tissue (mean) (ng/g)/Trough(12 hr) (ng/ml)",62.5

# Source: US20200094031A1, “TREATMENT OF A DISEASE OF THE GASTROINTESTINAL TRACT WITH A CHST15 INHIBITOR” (Progenity, Inc., priority 2017, published 2020)
